Data as given in patent publication US11197914B2, “GLP-1R/GCGR dual target agonist polypeptide for treatment of fatty liver diseases, hyperlipemia and arteriosclerosis” (Shenzhen Turier Biotech Co., Ltd., priority 2016, dated 2021).
*1 amine or outer side, *2 acyl side, *3 side chain or, on linkers, in order; H or OH if unused. Primed or numbered codes have the meaning given here. Where no end group is shown, it is not given here. Side-chain parts run from the residue outwards. [ ]: non-standard residue; d: D form. The star is where a group is joined. C18 diacid = O=C(O)CCCCCCCCCCCCCCCCC(=O)*; C16 diacid = O=C(O)CCCCCCCCCCCCCCC(=O)*; γGlu = O=C(O)[C@H](CCC(=O)[*:2])N[*:1]; Stearoyl = CCCCCCCCCCCCCCCCCC(=O)*; Palmitoyl = CCCCCCCCCCCCCCCC(=O)*; Nle = CCCC[C@H](N)C(=O)O; PEG2′ = not defined here; Aib = CC(C)(N)C(=O)O

Test system: Hepatic stellate cell strain LX-2
Test: In vitro inhibition of hepatic fibrosis: expression of LX-2 cell activation marker α-SMA (Western Blot, α-SMA/β-actin)
Format: cell-based, human
Details: LX-2 cells; for Relative expression of α-SMA (α-SMA/β-actin, %): 48 hours, negative control = 100%
Protocol: Hepatic stellate cell strain LX-2 was selected to study and observe the effect of different doses of test substances on the expression of LX-2 cell activation marker […]. Hepatic stellate cell LX-2 was laid on 35 mm cell culture plate, cultured with DMEM (high glucose)+10% FBS+1% double-antibody culture medium (Thermo Fisher), placed overnight when the cells grew to 70% convergence at 37° C. and under the condition of 5% CO2, and treated with the above compounds 1-37 (dissolved in PBS) for 48 hours the next day morning to extract cell protein, carry out Western Blot, and take β-actin as internal reference and analyze the expression quantities of α-SMA and β-actin by a gray level of Image J 1.50i. PBS with the same volume as that in experimental group was added in negative control. […] The integrating gray level of α-SMA/β-actin in the negative control group was 100% to analyze the in vitro inhibition activity of hepatic fibrosis of tested polypeptide.

## His-(D-Ser)-Gln-Gly-Thr-Phe-Thr-Ser-Asp-Tyr-Ser-Lys-Tyr-Leu-Asp-Ser-Lys(PEG2-PEG2-γGlu-CO(CH2)16CO2H)-Ala-Ala-His-Asp-Phe-Val-Glu-Trp-Leu-Leu-Asn-Gly-Gly-Pro-Ser-Ser-Gly-Ala-Pro-Pro-Pro-Ser-NH2 (H[dS]QGTFTSDYSKYLDSK([PEG2′-PEG2′-γGlu-C18 diacid])AAHDFVEWLLNGGPSSGAPPPS-NH2) [Compound 21]
1 μM
  Relative expression of α-SMA (α-SMA/β-actin, %): 97.66%

## His-(D-Ser)-Gln-Gly-Thr-Phe-Thr-Ser-Asp-Lys(PEG2-PEG2-CO(CH2)14CH3)-Ser-Lys-Tyr-Leu-Asp-Aib-Arg-Arg-Ala-Gln-Asp-Phe-Val-Gln-Trp-Leu-Met-Asn-Thr-Gly-Gly-Pro-Ser-Ser-Gly-Ala-Pro-Pro-Pro-Ser-NH2 (H[dS]QGTFTSDK([PEG2′-PEG2′-Palmitoyl])SKYLD[Aib]RRAQDFVQWLMNTGGPSSGAPPPS-NH2) [Compound 31]
1 μM
  Relative expression of α-SMA (α-SMA/β-actin, %): 86.89%

## His-(D-Ser)-Gln-Gly-Thr-Phe-Thr-Ser-Asp-Tyr-Ser-Lys-Tyr-Leu-Asp-Ser-Lys(PEG2-PEG2-γGlu-CO(CH2)16CO2H)-Ala-Ala-His-Asp-Phe-Val-Glu-Trp-Leu-Leu-Arg-Ala-NH2 (H[dS]QGTFTSDYSKYLDSK([PEG2′-PEG2′-γGlu-C18 diacid])AAHDFVEWLLRA-NH2) [Compound 17]
1 μM
  Relative expression of α-SMA (α-SMA/β-actin, %): 75.38%

## His-Aib-Gln-Gly-Thr-Phe-Thr-Ser-Asp-Lys(PEG2-PEG2-γGlu-CO(CH2)14CO2H)-Ser-Lys-Tyr-Leu-Asp-Aib-Arg-Arg-Ala-Gln-Asp-Phe-Val-Gln-Trp-Leu-Leu-Asp-Gly-Gly-Pro-Ser-Ser-Gly-Ala-Pro-Pro-Pro-Ser-NH2 (H[Aib]QGTFTSDK([PEG2′-PEG2′-γGlu-C16 diacid])SKYLD[Aib]RRAQDFVQWLLDGGPSSGAPPPS-NH2) [Compound 11]
1 μM
  Relative expression of α-SMA (α-SMA/β-actin, %): 96.78%

## His-(D-Ser)-Gln-Gly-Thr-Phe-Thr-Ser-Asp-Lys(PEG2-PEG2-CO(CH2)16CO2H)-Soer-Lys-Tyr-Leu-Asp-Aib-Arg-Arg-Ala-Gln-Asp-Phe-Val-Gln-Trp-Leu-Met-Asn-Thr-Gly-Gly-Pro-Ser-Ser-Gly-Ala-Pro-Pro-Pro-Ser-NH2 (H[dS]QGTFTSDK([PEG2′-PEG2′-C18 diacid])SKYLD[Aib]RRAQDFVQWLMNTGGPSSGAPPPS-NH2) [Compound 30]
1 μM
  Relative expression of α-SMA (α-SMA/β-actin, %): 85.53%

## His-(D-Ser)-Gln-Gly-Thr-Phe-Thr-Ser-Asp-Tyr-Ser-Lys(PEG2-PEG2-γGlu-CO(CH2)14CH3)-Lys-Leu-Asp-Aib-Arg-Arg-Ala-Gln-Asp-Phe-Val-Gln-Trp-Leu-Met-Asn-Thr-Gly-Gly-Pro-Ser-Ser-Gly-Ala-Pro-Pro-Pro-Ser-NH2 (H[dS]QGTFTSDYSK([PEG2′-PEG2′-γGlu-Palmitoyl])KLD[Aib]RRAQDFVQWLMNTGGPSSGAPPPS-NH2) [Compound 1]
1 μM
  Relative expression of α-SMA (α-SMA/β-actin, %): 75.26%

## His-(D-Ser)-Gln-Gly-Thr-Phe-Thr-Ser-Asp-Tyr-Ser-Lys-Tyr-Leu-Asp-Glu-Lys-Ala-Ala-Lys(PEG2-PEG2-γGlu-CO(CH2)16CH3)-Glu-Phe-Ile-Glu-Trp-Leu-Leu-Arg-Ala-NH2 (H[dS]QGTFTSDYSKYLDEKAAK([PEG2′-PEG2′-γGlu-Stearoyl])EFIEWLLRA-NH2) [Compound 24]
1 μM
  Relative expression of α-SMA (α-SMA/β-actin, %): 82.42%

## His-(D-Ser)-Gln-Gly-Thr-Phe-Thr-Ser-Asp-Tyr-Ser-Lys-Tyr-Leu-Asp-Aib-Lys(PEG2-PEG2-γGlu-CO(CH2)16CO2H)-Arg-Ala-Gln-Asp-Phe-Val-Gln-Trp-Leu-Met-Asn-Thr-Gly-Gly-Pro-Ser-Ser-Gly-Ala-Pro-Pro-Pro-Ser-NH2 (H[dS]QGTFTSDYSKYLD[Aib]K([PEG2′-PEG2′-γGlu-C18 diacid])RAQDFVQWLMNTGGPSSGAPPPS-NH2) [Compound 7]
1 μM
  Relative expression of α-SMA (α-SMA/β-actin, %): 73.52%

## His-(D-Ser)-Gln-Gly-Thr-Phe-Thr-Ser-Asp-Tyr-Ser-Lys(PEG2-PEG2-CO(CH2)16CH3)-Lys-Leu-Asp-Aib-Arg-Arg-Ala-Gln-Asp-Phe-Val-Gln-Trp-Leu-Met-Asn-Thr-Gly-Gly-Pro-Ser-Ser-Gly-Ala-Pro-Pro-Pro-Ser-NH2 (H[dS]QGTFTSDYSK([PEG2′-PEG2′-Stearoyl])KLD[Aib]RRAQDFVQWLMNTGGPSSGAPPPS-NH2) [Compound 3]
1 μM
  Relative expression of α-SMA (α-SMA/β-actin, %): 82.25%

## His-(D-Ser)-Gln-Gly-Thr-Phe-Thr-Ser-Asp-Tyr-Ser-Lys-Tyr-Leu-Asp-Lys(PEG2-PEG2-γGlu-CO(CH2)16CH3)-Arg-Arg-Ala-Gln-Asp-Phe-Val-Gln-Trp-Leu-Met-Asn-Thr-Gly-Gly-Pro-Ser-Ser-Gly-Ala-Pro-Pro-Pro-Ser-NH2 (H[dS]QGTFTSDYSKYLDK([PEG2′-PEG2′-γGlu-Stearoyl])RRAQDFVQWLMNTGGPSSGAPPPS-NH2) [Compound 36]
  Inhibition of LX-2 cell activation marker α-SMA (in words, from Table 2): obviously reduce
1 μM
  Relative expression of α-SMA (α-SMA/β-actin, %): 62.49%

## His-(D-Ser)-Gln-Gly-Thr-Phe-Thr-Ser-Asp-Tyr-Ser-Lys-Tyr-Leu-Asp-Lys(PEG2-PEG2-γGlu-CO(CH2)14CH3)-Arg-Arg-Ala-Gln-Asp-Phe-Val-Gln-Trp-Leu-Nle-Asn-Thr-Gly-Gly-Pro-Ser-Ser-Gly-Ala-Pro-Pro-Pro-Ser-NH2 (H[dS]QGTFTSDYSKYLDK([PEG2′-PEG2′-γGlu-Palmitoyl])RRAQDFVQWL[Nle]NTGGPSSGAPPPS-NH2) [Compound 37]
1 μM
  Relative expression of α-SMA (α-SMA/β-actin, %): 42.45%

## His-Aib-Gln-Gly-Thr-Phe-Thr-Ser-Asp-Lys(PEG2-PEG2-γGlu-CO(CH2)14CO2H)-Ser-Lys-Tyr-Leu-Asp-Glu-Arg-Arg-Ala-Gln-Asp-Phe-Val-Gln-Trp-Leu-Leu-Asp-Gly-Gly-Pro-Ser-Ser-Gly-Ala-Pro-Pro-Pro-Ser-NH2 (H[Aib]QGTFTSDK([PEG2′-PEG2′-γGlu-C16 diacid])SKYLDERRAQDFVQWLLDGGPSSGAPPPS-NH2) [Compound 13]
1 μM
  Relative expression of α-SMA (α-SMA/β-actin, %): 97.93%

## His-Aib-Gln-Gly-Thr-Phe-Thr-Ser-Asp-Lys(PEG2-PEG2-γGlu-CO(CH2)16CO2H)-Ser-Lys-Tyr-Leu-Asp-Glu-Arg-Arg-Ala-Gln-Asp-Phe-Val-Gln-Trp-Leu-Leu-Asp-Gly-Gly-Pro-Ser-Ser-Gly-Ala-Pro-Pro-Pro-Ser-NH2 (H[Aib]QGTFTSDK([PEG2′-PEG2′-γGlu-C18 diacid])SKYLDERRAQDFVQWLLDGGPSSGAPPPS-NH2) [Compound 15]
1 μM
  Relative expression of α-SMA (α-SMA/β-actin, %): 77.29%

## His-Aib-Gln-Gly-Thr-Phe-Thr-Ser-Asp-Lys(PEG2-PEG2-γGlu-CO(CH2)14CH3)-Ser-Lys-Tyr-Leu-Asp-Glu-Arg-Arg-Ala-Gln-Asp-Phe-Val-Gln-Trp-Leu-Leu-Asp-Gly-Gly-Pro-Ser-Ser-Gly-Ala-Pro-Pro-Pro-Ser-NH2 (H[Aib]QGTFTSDK([PEG2′-PEG2′-γGlu-Palmitoyl])SKYLDERRAQDFVQWLLDGGPSSGAPPPS-NH2) [Compound 16]
  Inhibition of LX-2 cell activation marker α-SMA (in words, from Table 2): obviously reduce
0.1 μM, 1 μM and 5 μM
  Effect on expression of α-SMA (in words): reduce the expression of α-SMA under all concentrations
0.1 μM
  Relative expression of α-SMA (α-SMA/β-actin, %): 65.32%
1 μM
  Relative expression of α-SMA (α-SMA/β-actin, %): 48.88%
5 μM
  Relative expression of α-SMA (α-SMA/β-actin, %): 40.35%

## His-(D-Ser)-Gln-Gly-Thr-Phe-Thr-Ser-Asp-Tyr-Ser-Lys-Tyr-Leu-Asp-Glu-Lys-Ala-Ala-Lys(PEG2-PEG2-γGlu-CO(CH2)16CO2H)-Glu-Phe-Ile-Glu-Trp-Leu-Leu-Asn-Gly-Gly-Pro-Ser-Ser-Gly-Ala-Pro-Pro-Pro-Ser-NH2 (H[dS]QGTFTSDYSKYLDEKAAK([PEG2′-PEG2′-γGlu-C18 diacid])EFIEWLLNGGPSSGAPPPS-NH2) [Compound 26]
1 μM
  Relative expression of α-SMA (α-SMA/β-actin, %): 94.44%

## His-(D-Ser)-Gln-Gly-Thr-Phe-Thr-Ser-Asp-Tyr-Ser-Lys-Tyr-Leu-Asp-Glu-Lys-Ala-Ala-Lys(PEG2-PEG2-γGlu-CO(CH2)14CH3)-Glu-Phe-Ile-Glu-Trp-Leu-Leu-Arg-Ala-NH2 (H[dS]QGTFTSDYSKYLDEKAAK([PEG2′-PEG2′-γGlu-Palmitoyl])EFIEWLLRA-NH2) [Compound 23]
1 μM
  Relative expression of α-SMA (α-SMA/β-actin, %): 95.91%

## His-(D-Ser)-Gln-Gly-Thr-Phe-Thr-Ser-Asp-Tyr-Ser-Lys-Tyr-Leu-Asp-Ser-Lys(PEG2-PEG2-γGlu-CO(CH2)16CH3)-Ala-Ala-His-Asp-Phe-Val-Glu-Trp-Leu-Leu-Arg-Ala-NH2 (H[dS]QGTFTSDYSKYLDSK([PEG2′-PEG2′-γGlu-Stearoyl])AAHDFVEWLLRA-NH2) [Compound 25]
1 μM
  Relative expression of α-SMA (α-SMA/β-actin, %): 93.34%

## His-(D-Ser)-Gln-Gly-Thr-Phe-Thr-Ser-Asp-Tyr-Ser-Lys-Tyr-Leu-Asp-Aib-Lys(PEG2-PEG2-γGlu-CO(CH2)14CH3)-Arg-Ala-Gln-Asp-Phe-Val-Gln-Trp-Leu-Met-Asn-Thr-Gly-Gly-Pro-Ser-Ser-Gly-Ala-Pro-Pro-Pro-Ser-NH2 (H[dS]QGTFTSDYSKYLD[Aib]K([PEG2′-PEG2′-γGlu-Palmitoyl])RAQDFVQWLMNTGGPSSGAPPPS-NH2) [Compound 33]
1 μM
  Relative expression of α-SMA (α-SMA/β-actin, %): 95.45%

## His-(D-Ser)-Gln-Gly-Thr-Phe-Thr-Ser-Asp-Tyr-Ser-Lys-Tyr-Leu-Asp-Lys(PEG2-PEG2-γGlu-CO(CH2)16CO2H)-Arg-Arg-Ala-Gln-Asp-Phe-Val-Gln-Trp-Leu-Met-Asn-Thr-Gly-Gly-Pro-Ser-Ser-Gly-Ala-Pro-Pro-Pro-Ser-NH2 (H[dS]QGTFTSDYSKYLDK([PEG2′-PEG2′-γGlu-C18 diacid])RRAQDFVQWLMNTGGPSSGAPPPS-NH2) [Compound 34]
1 μM
  Relative expression of α-SMA (α-SMA/β-actin, %): 88.18%
